{
  "source": "ChEMBL document CHEMBL3507680",
  "about": "“University of Dundee, Gates Library screen for HepG2 cell viability”",
  "data": [
    {"assay": "Human HepG2 cell viability assay in 384 well format", "format": "toxicity, cell-based", "design": "dose 125 nL, time 70.5 hour; concentration not given beside the values", "details": "HepG2 cells, read-out: Inhibition", "units": {"cytotoxicity at 70.5 h": "%"}, "values": [
      {"smiles": "CC(=O)N1CCC(Cc2cccc(-c3ccnn3C)n2)CC1", "cytotoxicity at 70.5 h": -8.71},
      {"smiles": "COCC1CN(C(=O)Cc2ccccn2)Cc2ncn(C)c21", "note": "(stereo not given)", "cytotoxicity at 70.5 h": -2.47},
      {"smiles": "CC(=O)Nc1ccc(F)c(S(=O)(=O)NC(C)(C)C)c1", "cytotoxicity at 70.5 h": -6.2},
      {"smiles": "CS(=O)(=O)N1CCc2nc(NC(=O)Nc3c(F)cccc3F)sc2C1", "cytotoxicity at 70.5 h": 0.946},
      {"smiles": "Oc1cc(CN2CCC(O)(Cn3ccnc3)CC2)nc2ccc(F)cc12", "cytotoxicity at 70.5 h": -7.61},
      {"smiles": "CNC(=O)CN(C)C(=O)c1ccc(-c2nc(C)cs2)cc1", "cytotoxicity at 70.5 h": -5.78},
      {"smiles": "O=C(Nc1ccccc1)c1cc2n(n1)CCCN(C(=O)N1CCCC1)C2", "cytotoxicity at 70.5 h": 22.6},
      {"smiles": "CCC(C)NC(=O)CS(=O)(=O)Cc1cc(Cl)c2c(c1)OCCCO2", "note": "(stereo not given)", "cytotoxicity at 70.5 h": -5.29},
      {"smiles": "Cc1cccc(C(=O)N2C[C@@H]3[C@H](CC(=O)NC(C)C)[C@@H]3C2)n1", "cytotoxicity at 70.5 h": -9.84},
      {"smiles": "COc1cc2c(nn1)CCN(Cc1nnc(Cc3ccccc3)o1)C2", "cytotoxicity at 70.5 h": -3.6},
      {"smiles": "O=C(C1CCOC1)N1C[C@H]2CN(Cc3cccnc3)C(=O)[C@H]2C1", "note": "(stereo not given in full)", "cytotoxicity at 70.5 h": 11.7},
      {"smiles": "Cc1cccc(CNC(=O)Nc2ccn(CCN(C)C)n2)c1", "cytotoxicity at 70.5 h": -7.32},
      {"smiles": "CCNc1cc2c(nn1)CCN(C(=O)c1ccsc1)C2", "cytotoxicity at 70.5 h": -3.61},
      {"smiles": "Cc1cc(NC(=O)N2CCCC(O)C2)nn1-c1ccccc1Cl", "note": "(stereo not given)", "cytotoxicity at 70.5 h": -5.66},
      {"smiles": "CCOCCN1CCN(CCCS(C)(=O)=O)CC1C", "note": "(stereo not given)", "cytotoxicity at 70.5 h": 11.8},
      {"smiles": "Cc1nc(CN2CCC(Oc3ccc(F)cc3C)(C(=O)O)CC2)co1", "cytotoxicity at 70.5 h": -2.54},
      {"smiles": "N#Cc1ccc(C2CC(=O)Nc3c2cnn3C2CCCC2)cc1", "note": "(stereo not given)", "cytotoxicity at 70.5 h": -2.74},
      {"smiles": "CO[C@@H]1CC[C@@H](NC(=O)CCc2ccc(Cl)cc2)[C@H]1O", "cytotoxicity at 70.5 h": -7.81},
      {"smiles": "O=C(c1ccc2c(c1)OCO2)N1CCC(C(=O)O)(c2ccccc2)CC1", "cytotoxicity at 70.5 h": -11.1},
      {"smiles": "COC(=O)c1cc(C(=O)N2CCOC(C)(C)C2)n(-c2ccccc2)n1", "cytotoxicity at 70.5 h": -10.1},
      {"smiles": "CCOc1ccccc1N(C)C(=O)c1ccc(Cl)cn1", "cytotoxicity at 70.5 h": 21.8},
      {"smiles": "COC1(CNC(=O)c2ccoc2)CCSC1", "note": "(stereo not given)", "cytotoxicity at 70.5 h": -11},
      {"smiles": "Cc1cnn(CC2CN(CC(=O)N(C)Cc3cccs3)CCO2)c1", "note": "(stereo not given)", "cytotoxicity at 70.5 h": -1.56},
      {"smiles": "CCN(c1ccccc1)S(=O)(=O)c1cc(C(=O)O)cc2c1CCC2", "cytotoxicity at 70.5 h": 21.2},
      {"smiles": "CC(C)(O)CN1CCN(C(=O)c2sccc2C#N)CC1", "cytotoxicity at 70.5 h": -3.64},
      {"smiles": "Cc1nn(C)c2c(N3CCC(C)CC3)nc(C3CC3)nc12", "cytotoxicity at 70.5 h": -11.4},
      {"smiles": "CCCc1cc(NCCN2CCNC2=O)n2nccc2n1", "cytotoxicity at 70.5 h": -11.5},
      {"smiles": "CC(NC(=O)CCCc1nc(C(C)(C)C)no1)c1ccccn1", "note": "(stereo not given)", "cytotoxicity at 70.5 h": 10.9},
      {"smiles": "Cc1cc(O)c(OCC(=O)/N=c2\\[nH]c(C)c(C)s2)cn1", "cytotoxicity at 70.5 h": 5.16},
      {"smiles": "O=c1[nH]c2ccccc2c(=O)n1Cc1nnnn1C1CC1", "cytotoxicity at 70.5 h": 2.86},
      {"smiles": "O=C(NCCN1CCCC1)c1nc2c(o1)CN(C(=O)c1cccnc1)C2", "cytotoxicity at 70.5 h": -1.83},
      {"smiles": "CC(C)N1CCc2ncn(C)c2C1C(=O)NCCN1CCCC1", "note": "(stereo not given)", "cytotoxicity at 70.5 h": -8.41},
      {"smiles": "CCN1c2ccc(-c3cncn3CCCn3ccnc3C)cc2CC1C", "note": "(stereo not given)", "cytotoxicity at 70.5 h": -0.494},
      {"smiles": "O=C(Cc1csc(-c2nnc[nH]2)n1)N1CCCC1Cn1cccn1", "note": "(stereo not given)", "cytotoxicity at 70.5 h": -8.18},
      {"smiles": "CN(C)C(=O)N1CCC2(CC1)C(=O)N(CC1CCOC1)c1ccccc12", "note": "(stereo not given)", "cytotoxicity at 70.5 h": -9.22},
      {"smiles": "Cc1nc2cc(=O)[nH]n2c(C)c1CC(=O)Nc1cnn(C)c1", "cytotoxicity at 70.5 h": 0.718},
      {"smiles": "O=S(=O)(c1ccc(Cl)s1)N1CCCn2ncnc21", "cytotoxicity at 70.5 h": -1.11},
      {"smiles": "CN1CC[C@H](N(C)Cc2ccccc2)C[C@H](O)C1", "cytotoxicity at 70.5 h": -10.5},
      {"smiles": "CCc1noc(C(C)N2CCN(c3ncnc4sccc34)CC2)n1", "note": "(stereo not given)", "cytotoxicity at 70.5 h": 1.35},
      {"smiles": "CCc1nc(CCn2ccnc2-c2nccn2C)no1", "cytotoxicity at 70.5 h": -7.8},
      {"smiles": "CC(Cc1cn(CCc2n[nH]c(=O)[nH]2)nn1)c1ccccc1", "note": "(stereo not given)", "cytotoxicity at 70.5 h": -7.35},
      {"smiles": "CCc1nnc(C(C)N2CCCN(C(=O)OCC(C)C)CC2)o1", "note": "(stereo not given)", "cytotoxicity at 70.5 h": 7.35},
      {"smiles": "Cc1ccc(C2CSCCN2C(=O)c2ccnc(N(C)C)c2)o1", "note": "(stereo not given)", "cytotoxicity at 70.5 h": 18.6},
      {"smiles": "Cc1ccc(CN2C[C@H]3CN(CC4CCN(C)CC4)C(=O)[C@H]3C2)s1", "cytotoxicity at 70.5 h": -12.7},
      {"smiles": "CCN1CCC(N2C[C@H]3OC(=O)N(CCc4cccc(Cl)c4)[C@H]3C2)CC1", "cytotoxicity at 70.5 h": -0.155},
      {"smiles": "COCCN1CCCC12CCN(Cc1cncn1C)CC2", "cytotoxicity at 70.5 h": -1.01},
      {"smiles": "CNc1nc2c(s1)C(c1cccc(Cl)c1Cl)CC(=O)N2", "note": "(stereo not given)", "cytotoxicity at 70.5 h": -8.56},
      {"smiles": "CS(=O)(=O)CCN(CCc1cccc(F)c1)C1CC1", "cytotoxicity at 70.5 h": -0.807},
      {"smiles": "O=C(CCc1ccccn1)NCC(O)c1ccc(Cl)cc1Cl", "note": "(stereo not given)", "cytotoxicity at 70.5 h": -1.56},
      {"smiles": "O=C1CCC2(CCN(Cc3ncccn3)CC2)CN1CCCO", "cytotoxicity at 70.5 h": -8.14},
      {"smiles": "Cc1noc(C)c1CN1C(=O)[C@H]2CC[C@@H]1CN(Cc1nccs1)C2", "cytotoxicity at 70.5 h": 0.0707},
      {"smiles": "CCCN(CCC)S(=O)(=O)NCCc1cc(C)ccc1OC", "cytotoxicity at 70.5 h": -8.2},
      {"smiles": "OCCN1CCN(Cc2coc(-c3ccc(Cl)cc3)n2)CC1", "cytotoxicity at 70.5 h": -11.8},
      {"smiles": "COC(=O)C(c1cc(F)ccc1F)N(C)C(=O)c1cnccn1", "note": "(stereo not given)", "cytotoxicity at 70.5 h": 21.6},
      {"smiles": "CCc1nnsc1C(=O)N1CCCN(Cc2nccn2C)CC1", "cytotoxicity at 70.5 h": -21.7},
      {"smiles": "COCC(O)CN(C)c1ccnc2cc(F)ccc12", "note": "(stereo not given)", "cytotoxicity at 70.5 h": 13.1},
      {"smiles": "C=C(C)COc1ccccc1C(=O)NCc1nc(C)cc(=O)[nH]1", "cytotoxicity at 70.5 h": -11.2},
      {"smiles": "CN(C)CCSc1ccc(NC(=O)c2nccn3ccnc23)cc1", "cytotoxicity at 70.5 h": -2.14},
      {"smiles": "Cc1oc(-c2nc(C#N)c(NC(C)C)o2)cc1S(=O)(=O)N1CCCCC1", "cytotoxicity at 70.5 h": -21.8},
      {"smiles": "CCc1nc(C)c([C@H]2CN(C)C[C@@H]2C(=O)NCc2ccccc2OC)[nH]1", "cytotoxicity at 70.5 h": -2.21},
      {"smiles": "N#Cc1ccccc1N1CCCN(CC(=O)Nc2ccccc2Cl)CC1", "cytotoxicity at 70.5 h": -6.48},
      {"smiles": "O=C(NC1CC1)N1C[C@@H]2CCN(C(=O)c3cscn3)[C@@H]2C1", "cytotoxicity at 70.5 h": 10.3},
      {"smiles": "CC(C)Oc1cc(N2CCN(Cc3ccsc3)C(CCO)C2)nc(N)n1", "note": "(stereo not given)", "cytotoxicity at 70.5 h": -17},
      {"smiles": "COc1c(C2CCCN2CC(=O)NCc2ccccn2)c(C)nn1C", "note": "(stereo not given)", "cytotoxicity at 70.5 h": -11.4},
      {"smiles": "CC[C@@H]1N(Cc2ccoc2)CCC[C@]12CCC(=O)N2CCOC", "cytotoxicity at 70.5 h": -5.78},
      {"smiles": "CN1C(=O)C2(CCCN(C(=O)c3cccnc3O)C2)c2ccccc21", "note": "(stereo not given)", "cytotoxicity at 70.5 h": 21},
      {"smiles": "O=C1CCC2(CCN(Cc3ccc(F)cc3)CC2)N1CCN1CCCC1", "cytotoxicity at 70.5 h": -19.9},
      {"smiles": "CC(C)c1cnc(CN(C)C2CCN(CCn3cc(C#N)cn3)C2)o1", "note": "(stereo not given)", "cytotoxicity at 70.5 h": -2.83},
      {"smiles": "COC[C@@]12CCO[C@@H]1CCN(C(=O)C1CCSCC1)C2", "cytotoxicity at 70.5 h": -5.18},
      {"smiles": "c1ccc(-c2nnc(CNCC3CCCN3c3cccnn3)o2)cc1", "note": "(stereo not given)", "cytotoxicity at 70.5 h": 7.04},
      {"smiles": "CCS(=O)(=O)NCCCn1ncc2c(C)cccc21", "cytotoxicity at 70.5 h": -1.77},
      {"smiles": "Cc1cccc(OC2CCN(C(=O)Cn3ccc4ccccc43)CC2)n1", "cytotoxicity at 70.5 h": -6.3},
      {"smiles": "Cc1cccc(N(CCC#N)S(=O)(=O)CC2CCCCO2)c1", "note": "(stereo not given)", "cytotoxicity at 70.5 h": 34.5},
      {"smiles": "O=C(NC1CCC1)[C@H]1C[C@@H]2CN(C(=O)Nc3ccc(F)cc3)C[C@H]1O2", "cytotoxicity at 70.5 h": -5.31},
      {"smiles": "Cc1cc(CN2CC[C@H]3C[C@H](C)O[C@@H]3C2)no1", "cytotoxicity at 70.5 h": -13.8},
      {"smiles": "NC[C@H]1[C@H]2CN(Cc3ccccc3)C[C@@H]12", "cytotoxicity at 70.5 h": 0.818},
      {"smiles": "Cc1cnn(CCNCc2nc(-c3ccccn3)no2)c1", "cytotoxicity at 70.5 h": -6.05},
      {"smiles": "Cc1nc(CN2C[C@@H]3CN(C(=O)Cc4ccccn4)C[C@@H]3C2)cs1", "cytotoxicity at 70.5 h": -4.03},
      {"smiles": "CN(Cc1cccc(OC(F)(F)F)c1)C(=O)c1ccncc1F", "cytotoxicity at 70.5 h": -4.4},
      {"smiles": "CS(=O)(=O)NC1CCCN(C(=O)Nc2ccccc2Cn2cccn2)C1", "note": "(stereo not given)", "cytotoxicity at 70.5 h": 14.4}
    ]}
  ]
}
